Results on 13 molecules are retold here after US20160263087A1, “NOVEL 4-(INDOL-3-YL)-PYRAZOLE DERIVATIVES, PHARMACEUTICAL COMPOSITIONS AND METHODS FOR USE” (ITEOS THERAPEUTICS, priority 2013, published 2016).

pIC50: −log10 of the molar value. Bounds are passed on as bounds.

The target of one series is T1, TDO2 (Mus musculus, UniProt P48776).
T1 construct: from tissue; host or cells: live mice (whole animal; plasma tryptophan read-out)
Kind of series: Pharmacodynamic assay for TDO2 in vivo activity: increase of blood tryptophan levels in mice. The conditions noted are these: for increase of circulating Tryptophan: plasma after two hours, vs vehicle; for Tryptophan concentration in plasma (average ± standard error of the mean): two hours, LC-MS-MS. On the procedure: The compounds of the present invention increase the amount of Tryptophan in mouse blood.
Briefly, mice were treated with either a suspension of one of the compounds of the present invention in 0.5% HPMC K4M/0.25% Tween 20 at different doses (30, 60 and 100 mg/kg), or with a vehicle control (0.5% HPMC K4M/0.25% Tween 20), by the oral route by gavage (dosing volume 5 mL/kg, 10 mice per group). After two hours, blood was harvested, plasma was prepared and the amount of Tryptophan present was determined by LC-MS-MS (HPLC column Unison UK-Phenyl, 75×4.6, 3 μm, flow rate 0.8 mL/min, 8 minutes gradient from 95% water+0.1% formic acid/5% Acetonitrile+0.1% formic acid to 5% water+0.1% formic acid/95% Acetonitrile+0.1% formic acid, retention time 2.4 min; API4000 MS-MS system from AB Sciex, ESI+ mode, parent ion 205.1, daughter ion 146.1).

Series [1] has as its target T2, human TDO2 (Homo sapiens, UniProt P48775). The series can be described thus: Assay for TDO2 enzymatic activity determination. Type of series: biochemical. The arrangement: made in house. The following applies: human recombinant TDO2, L-Trp 1 mM, room temperature, one hour, kynurenine absorbance at 480 nm. How it is done: To measure the TDO2 activity, the reaction mixture contained (final concentrations) potassium phosphate buffer (50 mM, pH 7.5), ascorbic acid (0.25 M), methylene blue (0.125 μM), catalase (40 units/mL, from bovine liver, Sigma), and human recombinant TDO2 enzyme (prepared as described in Dolusic et al. J. Med. Chem.; 2011, 54, 5320-5334; 0.9 μg) without or with the compounds of the present invention at the indicated concentrations (total volume 112.5 μL). The reaction was initiated by the addition of 37.5 μL of L-Trp (final concentration 1 mM) at room temperature. The reaction was conducted at room temperature during one hour and stopped by the addition of 30 μL of 30% (w/v) trichloroacetic acid.
To convert N-formylkynurenine into kynurenine, the reaction mixture was incubated at 65° C. for 30 min. Then 150 μL of the reaction mixture was mixed with 120 μL of 2.5% (w/v) 4-(dimethylamino)-benzaldehyde in acetic acid and incubated for 5 min at room temperature. Kynurenine concentrations were determined by measuring the absorbance at 480 nm. A standard curve was made with pure kynurenine. The TDO activity was measured as described above using ten serial concentrations of the compounds of the present invention. Data were fitted using the Prism software (GraphPad Software, Inc.).

The target in series [2] is T2, human TDO2. Kind of series: Cellular assay for TDO2 activity, hTDO2-overexpressing P815 cells. The following applies: murine mastocytoma P815 cells overexpressing hTDO2, overnight incubation, kynurenine absorbance at 480 nm. Set-up: expressed in transfected cells; host or cells: murine mastocytoma P815 cells. In kind it is cell-based. On the procedure:
The assay was performed in 96-well flat bottom plates seeded with murine mastocytoma P815 cells overexpressing hTDO2 (prepared as described in Pilotte et al., PNAS, 2012, 109(7), 2497-2502), at a concentration of 5×10^4 cells/well in a final volume of 200 μL. To determine TDO or IDO activity, the cells were incubated overnight at 37° C. at 5% CO2 in IMDM (Invitrogen) supplemented with 2% FBS and 2% penicillin/streptomycin in the presence of the compounds of the present invention, at different concentrations.
(§1) The plates were then centrifuged 5 min at 1000 rpm, and 100 μL of the supernatant were collected in a conical plate, 30 uL of TCA 30% were added and a further centrifugated at 3000×g for 10 minutes. 100 μL of the supernatant were collected in a flat bottomed plate and 100 μL of 2% (w/v) 4-(dimethylamino)-benzaldehyde in acetic acid and incubated for 5 min at room temperature. Kynurenine concentrations were determined by measuring the absorbance at 480 nm. A standard curve was made with pure kynurenine. The TDO activity was measured as described above using ten serial concentrations of the compounds of the present invention. Data were fitted using the Prism software (GraphPad Software, Inc.).

For series [3], the target named is T2, human TDO2. Kind of series: Cellular assay for TDO2 activity, A172 cells naturally expressing hTDO2. The conditions noted are these: A172 cells naturally expressing hTDO2, overnight incubation, kynurenine absorbance at 480 nm. The arrangement: expressed in transfected cells; host or cells: murine mastocytoma P815 cells. Type of series: cell-based. On the procedure:
The assay was performed in 96-well flat bottom plates seeded with […] A172 cells, naturally expressing hTDO2 (prepared as described in Tilman et al., Mol Cancer, 2007, 17(6), 80), at a concentration of 1.25×10^4 cells/well in a final volume of 200 μL. To determine TDO, the cells were incubated overnight at 37° C. at 5% CO2 in IMDM (Invitrogen) supplemented with 2% FBS and 2% penicillin/streptomycin in the presence of the compounds of the present invention, at different concentrations.
as §1

T1 sequence (P48776 whole entry): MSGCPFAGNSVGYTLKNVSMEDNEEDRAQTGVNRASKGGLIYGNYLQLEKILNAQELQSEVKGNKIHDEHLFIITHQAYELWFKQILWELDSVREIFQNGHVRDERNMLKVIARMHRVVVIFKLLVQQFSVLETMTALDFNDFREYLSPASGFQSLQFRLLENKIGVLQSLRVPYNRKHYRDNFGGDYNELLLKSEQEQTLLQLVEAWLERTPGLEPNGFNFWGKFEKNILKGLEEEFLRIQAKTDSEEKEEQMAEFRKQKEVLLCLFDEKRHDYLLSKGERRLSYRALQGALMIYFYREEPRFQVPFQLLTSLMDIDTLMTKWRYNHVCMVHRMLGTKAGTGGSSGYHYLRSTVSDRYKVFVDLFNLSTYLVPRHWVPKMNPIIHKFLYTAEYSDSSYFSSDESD
T2 sequence (P48775 whole entry): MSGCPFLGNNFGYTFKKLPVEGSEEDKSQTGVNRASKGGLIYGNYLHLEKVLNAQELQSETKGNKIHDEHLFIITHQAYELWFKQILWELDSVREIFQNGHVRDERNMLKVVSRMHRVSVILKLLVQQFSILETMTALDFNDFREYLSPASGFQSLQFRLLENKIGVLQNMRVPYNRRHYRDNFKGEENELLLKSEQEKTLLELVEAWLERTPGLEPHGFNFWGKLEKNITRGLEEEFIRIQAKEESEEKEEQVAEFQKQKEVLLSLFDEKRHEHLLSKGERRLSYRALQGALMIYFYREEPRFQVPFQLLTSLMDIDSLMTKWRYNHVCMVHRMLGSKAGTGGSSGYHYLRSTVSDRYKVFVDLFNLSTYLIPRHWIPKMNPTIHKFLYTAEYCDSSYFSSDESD

A word on the melting point: it is the temperature, or range, at which the solid turns liquid. `CC(=O)N1CCC(n2cc(-c3c[nH]c4cc(F)ccc34)cn2)CC1` [Compound 89, 1-(4-(4-(6-fluoro-1H-indol-3-yl)-1H-pyrazol-1-yl)piperidin-1-yl)ethanone] had a melting point of 183.2 to 184.5 °C. For the same molecule, on TDO2 (30 mg/kg oral gavage, p<0.05), the “increase of circulating Tryptophan” value is given as 26%. Also, on TDO2 (30 mg/kg oral gavage), the “Tryptophan concentration in plasma (average ± standard error of the mean)” value worked out at 25126 ng/mL. On TDO2 (60 mg/kg oral gavage), the “Tryptophan concentration in plasma (average ± standard error of the mean)” value was determined as 28452 ng/mL. Moreover, on TDO2 (100 mg/kg oral gavage, p<0.001), the “increase of circulating Tryptophan” value is given as 43%. Moreover, the “Tryptophan concentration in plasma (average ± standard error of the mean)” value at TDO2 (100 mg/kg oral gavage) was found to be 28374 ng/mL. The “increase of circulating Tryptophan” value at TDO2 (printed 30 mg/kg (second mention, p<0.001), oral gavage) was determined as 43%.

The term pIC50 denotes the IC50 on a negative log10 scale, so that one unit is a factor of ten. `NC(=O)C(O)Cn1cc(-c2c[nH]c3cc(F)ccc23)cn1` (centres unmarked) [Compound 37, 3-(4-(6-fluoro-1H-indol-3-yl)-1H-pyrazol-1-yl)-2-hydroxypropanamide]: the values for the pIC50 at human TDO2 [1] and against human TDO2 [2] were 5.00 to 6.00 and over 6.00, respectively.

`Cn1ncc(-c2c[nH]c3ccccc23)c1C(F)(F)F` [Compound 77, 3-(1-methyl-5-(trifluoromethyl)-1H-pyrazol-4-yl)-1H-indole]: the negative-log IC50 (pIC50) at human TDO2 [1] is 4.00 to 5.00; at human TDO2 [2] it was 5.00 to 6.00.

With `COCC(=O)N1CCC(n2cc(-c3c[nH]c4cc(F)ccc34)cn2)CC1` [Compound 85, 1-(4-(4-(6-fluoro-1H-indol-3-yl)-1H-pyrazol-1-yl)piperidin-1-yl)-2-methoxyethanone], the negative logarithm of the IC50 (pIC50) against human TDO2 [3] was over 6.00.

With `O=C(CCO)N1CCC(n2cc(-c3c[nH]c4cc(F)ccc34)cn2)CC1` [Compound 104, 1-(4-(4-(6-fluoro-1H-indol-3-yl)-1H-pyrazol-1-yl)piperidin-1-yl)-3-hydroxypropan-1-one], the pIC50 at human TDO2 [1] was 5.00 to 6.00; against human TDO2 [2], over 6.00.

On to `OC1CCC(n2cc(-c3c[nH]c4cc(F)ccc34)cn2)CC1` [Compound 68, (1R,4R)-4-(4-(6-fluoro-1H-indol-3-yl)-1H-pyrazol-1-yl)cyclohexanol], for which the pIC50 at human TDO2 [1] was 5.00 to 6.00; against human TDO2 [2], over 6.00.

In the case of `OC1(Cn2cc(-c3c[nH]c4cc(F)ccc34)cn2)CCOCC1` [Compound 59, 4-((4-(6-fluoro-1H-indol-3-yl)-1H-pyrazol-1-yl)methyl)tetrahydro-2H-pyran-4-ol], the pIC50 at human TDO2 [1] and on human TDO2 [2] was 5.00 to 6.00 each time.

`Cc1nn(C)cc1-c1c[nH]c2cc(F)ccc12` [Compound 75, 3-(1,3-dimethyl-1H-pyrazol-4-yl)-6-fluoro-1H-indole]: the pIC50 is 5.00 to 6.00 on human TDO2 [1] and over 6.00 against human TDO2 [2].

`Fc1ccc2c(-c3cnn(CC4CCNCC4)c3)c[nH]c2c1` [Compound 43, 6-fluoro-3-(1-(piperidin-4-ylmethyl)-1H-pyrazol-4-yl)-1H-indole]: the negative-log IC50 (pIC50) at human TDO2 [3] is over 6.00.

With `CS(=O)(=O)N1CCC(n2cc(-c3c[nH]c4cc(F)ccc34)cn2)CC1` [Compound 106, 6-fluoro-3-(1-(1-(methylsulfonyl)piperidin-4-yl)-1H-pyrazol-4-yl)-1H-indole], the pIC50 at human TDO2 [1] is 5.00 to 6.00; on human TDO2 [3], over 6.00; against human TDO2 [2] it was over 6.00.

Take `CS(=O)(=O)CCC(=O)N1CCC(n2cc(-c3c[nH]c4cc(F)ccc34)cn2)CC1` [Compound 105, 1-(4-(4-(6-fluoro-1H-indol-3-yl)-1H-pyrazol-1-yl)piperidin-1-yl)-3-(methylsulfonyl)propan-1-one]: the pIC50 is 5.00 to 6.00 on human TDO2 [1] and over 6.00 at human TDO2 [2].

Regarding `CS(=O)(=O)CCCC(=O)N1CCC(n2cc(-c3c[nH]c4cc(F)ccc34)cn2)CC1` [Compound 103, 1-(4-(4-(6-fluoro-1H-indol-3-yl)-1H-pyrazol-1-yl)piperidin-1-yl)-4-(methylsulfonyl)butan-1-one], the pIC50 at human TDO2 [1] was 4.00 to 5.00; against human TDO2 [2], 5.00 to 6.00.

The molecule `NC(=O)[C@H]1CC[C@H](n2cc(-c3c[nH]c4cc(F)ccc34)cn2)CC1` [Compound 67, (1R,4R)-4-(4-(6-fluoro-1H-indol-3-yl)-1H-pyrazol-1-yl)cyclohexanecarboxamide] showed a negative logarithm of the IC50 (pIC50) against human TDO2 [2] of 5.00 to 6.00.
